Each structure is given as a SMILES string. Bounds are passed on as bounds.

In one test the target is T1, mTOR kinase (Homo sapiens, UniProt P42345).
T1 construct: purchased Millipore, USA
The test can be described thus: mTOR kinase TR-FRET assay. To be noted: read-out: mTO R. It is filed as biochemical. In outline:
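Compounds preincubated 60 min with mTOR (5 ng) in HEPES pH 7.5, EGTA, MnCl2; ULight-p70 S6K Thr389 peptide (50 nM) and ATP (20 μM) then added, 60 min at room temperature. EDTA-stopped, Eu-anti-phospho antibody detection by TR-FRET (665/615 nm); IC50 from variable-slope sigmoidal fit.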
Background: In TR-FRET formats the signal depends on donor and acceptor labels being close together.

Test [1] deals with pS6RP(S235/236), PC3 cells. The test can be described thus: In-cell Western assay, pS6RP(S235/236) in PC3 cells. It is filed as cell-based, human. The settings on record: Homo sapiens, PC-3, In-cell Western. In outline:
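Overnight-seeded PC3 cells were treated 2 h with serially diluted compound, then fixed and immunostained with phospho-specific primary antibodies and Eu-labelled secondary. Time-resolved Eu signal read at 615 nm (ex 340 nm), normalised by Hoechst 33258 staining (ex 355/em 460 nm); IC50 from sigmoidal dose-response fit.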

For another test, the system named is PC3 cells. The test can be described thus: XTT assay for cell viability, PC3 cells. It is filed as cell-based, human. To be noted: Homo sapiens, PC-3, cell viability. In outline:
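PC3 cells seeded at 1000 cells/well, grown 24 h, then exposed to serial dilutions of compound for 96 h. Viability read by XTT dye at 37° C, absorbance 465 nm. EC50 from sigmoidal dose-response fit.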
(In general: Formazan colour is commonly taken as a measure of viable cells.)

In test [2] the target is T2, PI3Kα (wild-type), P110/P85α (Homo sapiens, UniProt P42336).
T2 construct: made in house; host or cells: SF9 insect cells
The test can be described thus: PI3 Kinase TR-FRET assay, PI3Kα (wild-type). Format: biochemical. A digest of the protocol:
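Sf9-expressed His-purified P110/P85α (5 ng) preincubated 60 min RT with compound and PIP2 in buffer with 40 mM MgCl2, 5 mM DTT; reaction started with ATP (PIP2 and ATP both 10 μM), 30 min RT. PIP3 detected by TR-FRET displacement, 665/615 nm ratio; IC50 from dose-response curves.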

T2 sequence (P42336 whole entry): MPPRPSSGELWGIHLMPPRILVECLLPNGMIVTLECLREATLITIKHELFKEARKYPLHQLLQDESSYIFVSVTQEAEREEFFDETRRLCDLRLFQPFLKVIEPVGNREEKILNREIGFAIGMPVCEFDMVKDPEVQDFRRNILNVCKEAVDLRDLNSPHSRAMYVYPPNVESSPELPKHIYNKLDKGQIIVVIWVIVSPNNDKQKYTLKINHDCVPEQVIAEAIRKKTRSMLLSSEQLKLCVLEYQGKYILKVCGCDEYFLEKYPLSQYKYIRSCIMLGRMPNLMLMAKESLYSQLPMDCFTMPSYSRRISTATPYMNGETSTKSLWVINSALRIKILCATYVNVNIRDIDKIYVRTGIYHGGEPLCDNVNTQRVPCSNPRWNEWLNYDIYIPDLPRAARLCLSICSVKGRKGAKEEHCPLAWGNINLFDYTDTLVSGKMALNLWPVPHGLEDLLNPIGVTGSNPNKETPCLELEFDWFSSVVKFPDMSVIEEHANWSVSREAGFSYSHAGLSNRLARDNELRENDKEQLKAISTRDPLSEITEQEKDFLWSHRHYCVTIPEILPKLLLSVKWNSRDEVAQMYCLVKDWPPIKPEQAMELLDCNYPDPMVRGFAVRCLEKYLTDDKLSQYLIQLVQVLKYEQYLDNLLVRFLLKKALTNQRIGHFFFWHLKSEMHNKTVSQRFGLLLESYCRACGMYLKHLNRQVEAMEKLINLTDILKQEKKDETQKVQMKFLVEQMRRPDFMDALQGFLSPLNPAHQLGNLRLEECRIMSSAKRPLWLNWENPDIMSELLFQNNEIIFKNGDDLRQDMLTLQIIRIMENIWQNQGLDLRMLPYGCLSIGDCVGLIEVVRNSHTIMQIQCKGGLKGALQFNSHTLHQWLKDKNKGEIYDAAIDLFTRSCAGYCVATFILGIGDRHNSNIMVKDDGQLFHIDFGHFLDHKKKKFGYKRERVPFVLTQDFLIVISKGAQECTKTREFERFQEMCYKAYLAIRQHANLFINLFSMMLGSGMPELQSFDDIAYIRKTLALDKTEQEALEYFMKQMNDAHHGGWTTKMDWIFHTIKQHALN
T2 sequence (P27986 whole entry partner): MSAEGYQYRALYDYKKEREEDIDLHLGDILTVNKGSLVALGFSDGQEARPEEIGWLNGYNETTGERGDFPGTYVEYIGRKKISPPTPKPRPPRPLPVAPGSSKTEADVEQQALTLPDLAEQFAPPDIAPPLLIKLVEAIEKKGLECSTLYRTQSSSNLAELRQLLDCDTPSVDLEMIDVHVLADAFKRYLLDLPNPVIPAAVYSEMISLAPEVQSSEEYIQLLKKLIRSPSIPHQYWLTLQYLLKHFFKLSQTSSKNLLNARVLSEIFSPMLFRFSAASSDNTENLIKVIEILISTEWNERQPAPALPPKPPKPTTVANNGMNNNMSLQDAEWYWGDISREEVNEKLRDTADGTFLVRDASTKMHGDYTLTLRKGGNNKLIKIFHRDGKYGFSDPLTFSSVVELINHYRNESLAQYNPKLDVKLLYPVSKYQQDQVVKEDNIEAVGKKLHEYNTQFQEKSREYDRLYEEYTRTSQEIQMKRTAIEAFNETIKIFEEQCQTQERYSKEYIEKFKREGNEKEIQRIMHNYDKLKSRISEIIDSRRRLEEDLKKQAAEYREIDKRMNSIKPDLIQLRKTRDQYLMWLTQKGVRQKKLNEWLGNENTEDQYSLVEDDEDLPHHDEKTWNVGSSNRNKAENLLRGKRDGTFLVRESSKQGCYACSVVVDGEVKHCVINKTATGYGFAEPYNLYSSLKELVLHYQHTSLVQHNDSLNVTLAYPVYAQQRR

For the compound `COc1ncc(-c2cnc3c(N4CCOCC4)nc(-c4ccc(NC(=O)Nc5ccc(C(=O)N(C)C)cc5)c(F)c4)nc3c2)cn1` [Example 117, 4-(3-(2-fluoro-4-(7-(2-methoxypyrimidin-5-yl)-4-morpholino-pyrido[3,2-d]pyrimidin-2-yl)phenyl)ureido)-N,N-dimethyl-benzamide], the IC50 on mTOR kinase was under 50 nM; in test [1] it was 201 to 10000 nM; in the test on PC3 cells, under 100 nM; in test [2] it was under 50 nM.

As for `Cc1noc(C)c1-c1cnc2c(N3CCOCC3)nc(-c3ccc(NC(=O)Nc4ccc(C(=O)N(C)C)cc4)cc3)nc2c1` [Example 120, 4-(3-(4-(7-(3,5-dimethylisoxazol-4-yl)-4-morpholino-pyrido[3,2-d]pyrimidin-2-yl)phenyl)ureido)-N,N-dimethyl-benzamide], the IC50 was under 50 nM on mTOR kinase, 201 to 10000 nM in test [1], 201 to 10000 nM with PC3 cells and under 50 nM in test [2].

Take `Cc1noc(C)c1-c1ccc2c(N3CCOCC3)nc(-c3ccc(NC(=O)Nc4ccc(C(=O)N(C)C)cc4)cc3)nc2c1` [Example 121, 4-(3-(4-(7-(3,5-dimethylisoxazol-4-yl)-4-morpholino-quinazolin-2-yl)phenyl)ureido)-N,N-dimethyl-benzamide]: the IC50 on mTOR kinase is under 50 nM; in test [1], 201 to 10000 nM; in the test with PC3 cells it was 201 to 10000 nM; in test [2], under 50 nM.

For the compound `CN(C)C(=O)c1ccc(NC(=O)Nc2ccc(-c3nc(N4CCOCC4)c4ccc(-c5cncnc5)cc4n3)cc2F)cn1` [Example 123, 5-(3-(2-fluoro-4-(4-morpholino-7-(pyrimidin-5-yl)quinazolin-2-yl)phenyl)ureido)-N,N-dimethylpicolinamide], the IC50 on mTOR kinase is under 50 nM; in test [1], 201 to 10000 nM; in the test on PC3 cells, 201 to 10000 nM; in test [2], 50 to 200 nM.

As for `CN(C)C(=O)c1ccc(NC(=O)Nc2ccc(-c3nc(N4CCOCC4)c4ncc(-c5cnc(N)nc5)cc4n3)cc2F)cc1` [Example 127, 4-(3-(4-(7-(2-aminopyrimidin-5-yl)-4-morpholinopyrido[3,2-d]pyrimidin-2-yl)-2-fluorophenyl)ureido)-N,N-dimethyl-benzamide], the IC50 on mTOR kinase is under 50 nM; in test [1], 201 to 10000 nM; in the test with PC3 cells, 201 to 10000 nM; in test [2], under 50 nM.

Turning to `CC1CN(c2nc(-c3ccc(NC(=O)Nc4ccc(C(=O)N(C)C)cc4)cc3)nc3cc(-c4cncnc4)ccc23)CC(C)O1` (stereo not shown) [Example 128, 4-(3-(4-(4-(2,6-dimethylmorpholino)-7-(pyrimidin-5-yl)quinazolin-2-yl)phenyl)ureido)-N,N-dimethyl-benzamide], the IC50 at mTOR kinase is under 50 nM; in test [1], 201 to 10000 nM; with PC3 cells, under 100 nM; in test [2], 201 to 10000 nM.

As to `Cc1ccc(-c2ccc3c(N4CCOCC4)nc(-c4ccc(NC(=O)Nc5ccc(C(=O)N(C)C)nc5)nc4)nc3c2)o1` [Example 129, N,N-dimethyl-5-(3-(5-(7-(5-methylfuran-2-yl)-4-morpholino-quinazolin-2-yl)pyridin-2-yl)ureido)picolinamide], the IC50 at mTOR kinase is 50 to 200 nM; in test [1], under 100 nM; with PC3 cells, 501 to 5000 nM; in test [2] it was under 50 nM.

Regarding `CN(C)C(=O)c1ccc(NC(=O)Nc2ccc(-c3nc(N4CCOCC4)c4ccc(-c5cccc(S(C)(=O)=O)c5)cc4n3)cc2F)cn1` [Example 130, 5-(3-(2-fluoro-4-(7-(3-(methylsulfonyl)phenyl)-4-morpholino-quinazolin-2-yl)phenyl)ureido)-N,N-dimethylpicolinamide], the IC50 on mTOR kinase was under 50 nM; in test [1], 201 to 10000 nM; with PC3 cells it was 201 to 10000 nM; in test [2] it was under 50 nM.

On to `Cc1noc(C)c1-c1ccc2c(N3CCOCC3)nc(-c3ccc(NC(=O)Nc4ccc(C(=O)N(C)C)cc4)c(F)c3)nc2c1` [Example 131, 4-(3-(4-(7-(3,5-dimethylisoxazol-4-yl)-4-morpholino-quinazolin-2-yl)-2-fluorophenyl)ureido)-N,N-dimethyl-benzamide], for which the IC50 is 50 to 200 nM at mTOR kinase, 201 to 10000 nM in test [1], 201 to 10000 nM in the test on PC3 cells and under 50 nM in test [2].

Take `CC1CN(c2nc(-c3ccc(NC(=O)Nc4ccc(C(=O)N(C)C)cc4)c(F)c3)nc3cc(-c4cncnc4)ccc23)CC(C)O1` (stereo not shown) [Example 132, 4-(3-(4-(4-(2,6-dimethylmorpholino)-7-(pyrimidin-5-yl)quinazolin-2-yl)-2-fluorophenyl)ureido)-N,N-dimethyl-benzamide]: the IC50 is 50 to 200 nM at mTOR kinase, 201 to 10000 nM in test [1], 201 to 10000 nM in the test with PC3 cells and 201 to 10000 nM in test [2].

Take `CN(C)C(=O)c1ccc(NC(=O)Nc2ccc(-c3nc(N4CCOCC4)c4ncc(-c5cnn(C)c5)cc4n3)cc2)c(F)c1` [Example 134, 3-fluoro-N,N-dimethyl-4-(3-(4-(7-(1-methyl-1H-pyrazol-4-yl)-4-morpholino-pyrido[3,2-d]pyrimidin-2-yl)phenyl)ureido)-benzamide]: the IC50 on mTOR kinase was under 50 nM; in test [1] it was 201 to 10000 nM; in the test with PC3 cells it was 201 to 10000 nM; in test [2], under 50 nM.

Turning to `CN(C)C(=O)c1ccc(NC(=O)Nc2ccc(-c3nc(N4CCOCC4)c4ccc(-c5ccncc5)cc4n3)cc2F)cc1` [Example 137, 4-(3-(2-fluoro-4-(4-morpholino-7-(pyridin-4-yl)quinazolin-2-yl)phenyl)ureido)-N,N-dimethyl-benzamide], the IC50 on mTOR kinase fell in the range of 50 to 200 nM; in test [1] it was 201 to 10000 nM; in the test with PC3 cells, 201 to 10000 nM; in test [2] it was 50 to 200 nM.

For `CN(C)C(=O)c1ccc(NC(=O)Nc2ccc(-c3nc(N4CCOCC4)c4ccccc4n3)cc2)cc1` [Example 179, N,N-dimethyl-4-(3-(4-(4-morpholino-quinazolin-2-yl)phenyl)ureido)-benzamide], the IC50 on mTOR kinase is under 50 nM; in test [1] it was 201 to 10000 nM; with PC3 cells, 201 to 10000 nM; in test [2], 50 to 200 nM.

Take `COc1ccc2c(N3CCOCC3)nc(-c3ccc(NC(=O)Nc4ccc(C(=O)N(C)C)cc4)cc3)nc2c1` [Example 180, 4-(3-(4-(7-methoxy-4-morpholino-quinazolin-2-yl)phenyl)ureido)-N,N-dimethyl-benzamide]: the IC50 at mTOR kinase is under 50 nM; in test [1] it was 201 to 10000 nM; in the test on PC3 cells, 201 to 10000 nM; in test [2] it was under 50 nM.

With `COc1cc2nc(-c3ccc(NC(=O)Nc4ccc(C(=O)N(C)C)cc4)cc3)nc(N3CCOCC3)c2cc1OC` [Example 181, 4-(3-(4-(6,7-dimethoxy-4-morpholino-quinazolin-2-yl)phenyl)ureido)-N,N-dimethyl-benzamide], the IC50 at mTOR kinase was under 50 nM; in test [1], 201 to 10000 nM; with PC3 cells, 201 to 10000 nM; in test [2], 50 to 200 nM.

In the case of `CN(C)[C@@H]1CCN(C(=O)c2ccc(NC(=O)Nc3ccc(-c4nc(N5CCOCC5)c5ncc(-c6cnn(C)c6)cc5n4)cc3)cc2)C1` [Example 184, (R)-1-(4-(3-(dimethylamino)pyrrolidine-1-carbonyl)phenyl)-3-(4-(7-(1-methyl-1H-pyrazol-4-yl)-4-morpholino-pyrido[3,2-d]pyrimidin-2-yl)phenyl)urea], the IC50 is under 50 nM on mTOR kinase, 201 to 10000 nM in test [1], 201 to 10000 nM in the test on PC3 cells and under 50 nM in test [2].

As to `CN(C)C1CCN(C(=O)c2ccc(NC(=O)Nc3ccc(-c4nc(N5CCOCC5)c5ncc(-c6cnn(C)c6)cc5n4)cc3)cc2)CC1` [Example 186, 1-(4-(4-(dimethylamino)piperidine-1-carbonyl)phenyl)-3-(4-(7-(1-methyl-1H-pyrazol-4-yl)-4-morpholino-pyrido[3,2-d]pyrimidin-2-yl)phenyl)urea], the IC50 at mTOR kinase was under 50 nM; in test [1], 201 to 10000 nM; with PC3 cells, 201 to 10000 nM; in test [2], under 50 nM.

For `CN(C)[C@@H]1CCN(C(=O)c2ccc(NC(=O)Nc3ccc(-c4nc(N5CCOCC5)c5ccc(-c6cncnc6)cc5n4)cc3)cc2)C1` [Example 187, (R)-1-(4-(3-(dimethylamino)pyrrolidine-1-carbonyl)phenyl)-3-(4-(4-morpholino-7-(pyrimidin-5-yl)quinazolin-2-yl)phenyl)urea], the IC50 is under 50 nM at mTOR kinase, 201 to 10000 nM in test [1], 201 to 10000 nM with PC3 cells and under 50 nM in test [2].

With `O=C(Nc1ccc(C(=O)N2CCC(O)C2)cc1)Nc1ccc(-c2nc(N3CCOCC3)c3ccc(-c4cncnc4)cc3n2)cc1` (stereo not shown) [Example 189, 1-(4-(3-hydroxypyrrolidine-1-carbonyl)phenyl)-3-(4-(4-morpholino-7-(pyrimidin-5-yl)quinazolin-2-yl)phenyl)urea], the IC50 was under 50 nM on mTOR kinase, 201 to 10000 nM in test [1], 201 to 10000 nM in the test with PC3 cells and 201 to 10000 nM in test [2].

Values taken from US9115092B2, “Substituted quinazoline and pyrido-pyrimidine derivatives” (Asana Biosciences, LLC, priority 2010, dated 2015).
